Measured values: patent US20240024273A1, “TOPICAL ADMINISTRATION OF 2-(DIETHYLAMINO)ETHYL 2-(4-ISOBUTYLPHENYL)PROPRIONATE FOR TREATMENT OF DISEASES” (TECHFIELDS PHARMA CO., LTD., priority 2020, published 2024)

Test system: Subjects with Osteoarthritis of the Knee
Test: Second Phase 2 study: safety (treatment-emergent adverse events)
Type: in vivo, human
From the text: Safety assessments will be performed at each visit and will include assessment of AEs, vital signs (blood pressure, pulse rate, and oral temperature), clinical laboratories, physical examination, skin irritation, and electrocardiograms (ECGs) as indicated in the study flow chart, Table 47.
Safety assessments will include AEs, vital signs (blood pressures, pulse rate, and oral temperature), clinical laboratories, physical examination, skin irritation, and ECGs at various time points during the study as indicated in the study flow chart.
Adverse events of interest include: local skin reactions around the treated knee(s), upper stomach pain, GI bleeding, serious cardiovascular side effects (e.g., thrombotic events, myocardial infarction, or stroke), jaundice, elevated liver function tests, and nausea.
Safety analyses will be conducted on the SAS. Safety parameters will be listed and summarized using standard descriptive statistics, as appropriate. No formal statistical analyses are planned.

CCN(CC)CCOC(=O)C(C)c1ccc(CC(C)C)cc1 (stereo not drawn) [2-(diethylamino)ethyl 2-(4-isobutylphenyl)propionate]
8: Metabolism and Nutrition Disorders: number of adverse events (8.75 mg/knee, BID, N = 70) | Metabolism and Nutrition Disorders: subjects with adverse events (8.75 mg/knee, BID, N = 70) | Nervous System Disorders: number of adverse events (8.75 mg/knee, BID, N = 70)
35.7%: incidence rate of AEs possibly, probably, or definitely related to study drug (17.5 mg/knee (BID))
6(8.6%): Urinary Tract Infection: subjects with adverse events, number (percentage) (8.75 mg/knee, BID, N = 70)
12(15.7%): Upper Respiratory Tract Infection: subjects with adverse events, number (percentage) (8.75 mg/knee, BID, N = 70)
2(1.4%): Oropharyngeal Pain: subjects with adverse events, number (percentage) (8.75 mg/knee, BID, N = 70)
2(%)[2]: Back Pain: number of adverse events (8.75 mg/knee, BID, N = 70) | Back Pain: subjects with adverse events, number (percentage) (8.75 mg/knee, BID, N = 70) | Vertigo: number of adverse events (8.75 mg/knee, BID, N = 70) | Vertigo: subjects with adverse events (8.75 mg/knee, BID, N = 70)
5.7%: GI disorders incidence rate (17.5 mg/knee (BID)) | Administration Site Conditions: percentage of subjects with adverse events (17.5 mg/knee, BID, N = 70)
3(%)[3]: Neck Pain: number of adverse events (8.75 mg/knee, BID, N = 70) | Neck Pain: subjects with adverse events, number (percentage) (8.75 mg/knee, BID, N = 70)
6: Frequency of Positive Fecal Occult Blood Test (8.75 mg/knee, BID, N = 70) | Headache: number of adverse events (8.75 mg/knee, BID, N = 70) | Urinary Tract Infection: number of adverse events (8.75 mg/knee, BID, N = 70)
1.4%: Abdominal Pain Upper: percentage of subjects with adverse events (8.75 mg/knee, BID, N = 70) | Administration Site Conditions: percentage of subjects with adverse events (8.75 mg/knee, BID, N = 70) | Alanine Aminotransferase Increased: percentage of subjects with adverse events (8.75 mg/knee, BID, N = 70) | Application Site Irritation: percentage of subjects with adverse events (8.75 mg/knee, BID, N = 70) | Blood Lactate Dehydrogenase Increased: percentage of subjects with adverse events (8.75 mg/knee, BID, N = 70) | Hypertension: percentage of subjects with adverse events (8.75 mg/knee, BID, N = 70) | Skin Irritation: percentage of subjects with adverse events (8.75 mg/knee, BID, N = 70) | Skin and Subcutaneous Tissue Disorders: percentage of subjects with adverse events (8.75 mg/knee, BID, N = 70) | Thrombosis: percentage of subjects with adverse events (8.75 mg/knee, BID, N = 70) | Toothache: percentage of subjects with adverse events (8.75 mg/knee, BID, N = 70) | Transaminases Increased: percentage of subjects with adverse events (8.75 mg/knee, BID, N = 70) | Abdominal Discomfort: percentage of subjects with adverse events (17.5 mg/knee, BID, N = 70) | Abdominal Pain Upper: percentage of subjects with adverse events (17.5 mg/knee, BID, N = 70) | Application Site Irritation: percentage of subjects with adverse events (17.5 mg/knee, BID, N = 70)
14.3%: Gastrointestinal Disorders: percentage of subjects with adverse events (8.75 mg/knee, BID, N = 70)
2.9%: Diarrhoea: percentage of subjects with adverse events (8.75 mg/knee, BID, N = 70) | Ear and Labyrinth Disorders: percentage of subjects with adverse events (8.75 mg/knee, BID, N = 70) | Vascular Disorders: percentage of subjects with adverse events (8.75 mg/knee, BID, N = 70) | White Blood Cell Count Decreased: percentage of subjects with adverse events (8.75 mg/knee, BID, N = 70)
20(28.6%): Infections and Infestations: subjects with adverse events, number (percentage) (8.75 mg/knee, BID, N = 70)
4: Administration Site Conditions: number of adverse events (17.5 mg/knee, BID, N = 70) | Administration Site Conditions: subjects with adverse events (17.5 mg/knee, BID, N = 70)
10: Gastrointestinal Disorders: subjects with adverse events (8.75 mg/knee, BID, N = 70)
18.6%: infections and infestations incidence rate (17.5 mg/knee (BID))
7: Musculoskeletal and Connective Tissue Disorders, Overall Total: number of adverse events (8.75 mg/knee, BID, N = 70)
1(%)[1]: Joint Stiffness: number of adverse events (8.75 mg/knee, BID, N = 70) | Joint Stiffness: subjects with adverse events, number (percentage) (8.75 mg/knee, BID, N = 70) | Pain in Extremity: number of adverse events (8.75 mg/knee, BID, N = 70) | Pain in Extremity: subjects with adverse events, number (percentage) (8.75 mg/knee, BID, N = 70)
12: Upper Respiratory Tract Infection: number of adverse events (8.75 mg/knee, BID, N = 70)
1: Abdominal Pain Upper: number of adverse events (8.75 mg/knee, BID, N = 70) | Abdominal Pain Upper: subjects with adverse events (8.75 mg/knee, BID, N = 70) | Administration Site Conditions: number of adverse events (8.75 mg/knee, BID, N = 70) | Administration Site Conditions: subjects with adverse events (8.75 mg/knee, BID, N = 70) | Alanine Aminotransferase Increased: number of adverse events (8.75 mg/knee, BID, N = 70) | Alanine Aminotransferase Increased: subjects with adverse events (8.75 mg/knee, BID, N = 70) | Application Site Irritation: number of adverse events (8.75 mg/knee, BID, N = 70) | Application Site Irritation: subjects with adverse events (8.75 mg/knee, BID, N = 70) | Blood Lactate Dehydrogenase Increased: number of adverse events (8.75 mg/knee, BID, N = 70) | Blood Lactate Dehydrogenase Increased: subjects with adverse events (8.75 mg/knee, BID, N = 70) | Hypertension: number of adverse events (8.75 mg/knee, BID, N = 70) | Hypertension: subjects with adverse events (8.75 mg/knee, BID, N = 70) | Hypoaesthesia: number of adverse events (8.75 mg/knee, BID, N = 70) | Influenza: number of adverse events (8.75 mg/knee, BID, N = 70) | Skin Irritation: number of adverse events (8.75 mg/knee, BID, N = 70) | Skin Irritation: subjects with adverse events (8.75 mg/knee, BID, N = 70) | Skin and Subcutaneous Tissue Disorders: number of adverse events (8.75 mg/knee, BID, N = 70) | Skin and Subcutaneous Tissue Disorders: subjects with adverse events (8.75 mg/knee, BID, N = 70) | Throat Irritation: number of adverse events (8.75 mg/knee, BID, N = 70) | Thrombosis: number of adverse events (8.75 mg/knee, BID, N = 70) | Thrombosis: subjects with adverse events (8.75 mg/knee, BID, N = 70) | Tooth Infection: number of adverse events (8.75 mg/knee, BID, N = 70) | Toothache: number of adverse events (8.75 mg/knee, BID, N = 70) | Toothache: subjects with adverse events (8.75 mg/knee, BID, N = 70) | Transaminases Increased: number of adverse events (8.75 mg/knee, BID, N = 70) | Transaminases Increased: subjects with adverse events (8.75 mg/knee, BID, N = 70) | Abdominal Discomfort: number of adverse events (17.5 mg/knee, BID, N = 70) | Abdominal Discomfort: subjects with adverse events (17.5 mg/knee, BID, N = 70) | Abdominal Pain Upper: subjects with adverse events (17.5 mg/knee, BID, N = 70) | Application Site Irritation: number of adverse events (17.5 mg/knee, BID, N = 70) | Application Site Irritation: subjects with adverse events (17.5 mg/knee, BID, N = 70)
3: Abdominal Discomfort: subjects with adverse events (8.75 mg/knee, BID, N = 70) | Hypertriglyceridemia: number of adverse events (8.75 mg/knee, BID, N = 70) | Hypertriglyceridemia: subjects with adverse events (8.75 mg/knee, BID, N = 70) | Nausea: number of adverse events (8.75 mg/knee, BID, N = 70) | Nausea: subjects with adverse events (8.75 mg/knee, BID, N = 70) | Respiratory, Thoracic and Mediastinal Disorders: number of adverse events (8.75 mg/knee, BID, N = 70) | Application Site Rash: number of adverse events (17.5 mg/knee, BID, N = 70) | Application Site Rash: subjects with adverse events (17.5 mg/knee, BID, N = 70)
11: Gastrointestinal Disorders: number of adverse events (8.75 mg/knee, BID, N = 70)
2: Diarrhoea: number of adverse events (8.75 mg/knee, BID, N = 70) | Diarrhoea: subjects with adverse events (8.75 mg/knee, BID, N = 70) | Dizziness: number of adverse events (8.75 mg/knee, BID, N = 70) | Ear and Labyrinth Disorders: number of adverse events (8.75 mg/knee, BID, N = 70) | Ear and Labyrinth Disorders: subjects with adverse events (8.75 mg/knee, BID, N = 70) | Oropharyngeal Pain: number of adverse events (8.75 mg/knee, BID, N = 70) | Vascular Disorders: number of adverse events (8.75 mg/knee, BID, N = 70) | Vascular Disorders: subjects with adverse events (8.75 mg/knee, BID, N = 70) | White Blood Cell Count Decreased: number of adverse events (8.75 mg/knee, BID, N = 70) | White Blood Cell Count Decreased: subjects with adverse events (8.75 mg/knee, BID, N = 70) | Abdominal Pain Upper: number of adverse events (17.5 mg/knee, BID, N = 70)
2(2.9%): Dizziness: subjects with adverse events, number (percentage) (8.75 mg/knee, BID, N = 70)
5: Hypercholesterolaemia: number of adverse events (8.75 mg/knee, BID, N = 70) | Hypercholesterolaemia: subjects with adverse events (8.75 mg/knee, BID, N = 70) | Investigations: number of adverse events (8.75 mg/knee, BID, N = 70) | Investigations: subjects with adverse events (8.75 mg/knee, BID, N = 70) | Subjects with Positive Fecal Occult Blood Test (8.75 mg/knee, BID, N = 70)
7.1%: Hypercholesterolaemia: percentage of subjects with adverse events (8.75 mg/knee, BID, N = 70) | Investigations: percentage of subjects with adverse events (8.75 mg/knee, BID, N = 70) | Subjects with Positive Fecal Occult Blood Test, percentage (8.75 mg/knee, BID, N = 70) | positive fecal occult blood test incidence rate (17.5 mg/knee (BID))
7(10.0%): Musculoskeletal and Connective Tissue Disorders, Overall Total: subjects with adverse events, number (percentage) (8.75 mg/knee, BID, N = 70) | Nervous System Disorders: subjects with adverse events, number (percentage) (8.75 mg/knee, BID, N = 70)
1(1.4%): Hypoaesthesia: subjects with adverse events, number (percentage) (8.75 mg/knee, BID, N = 70) | Influenza: subjects with adverse events, number (percentage) (8.75 mg/knee, BID, N = 70) | Throat Irritation: subjects with adverse events, number (percentage) (8.75 mg/knee, BID, N = 70) | Tooth Infection: subjects with adverse events, number (percentage) (8.75 mg/knee, BID, N = 70)
4(5.7%): Headache: subjects with adverse events, number (percentage) (8.75 mg/knee, BID, N = 70)
12.9%: Metabolism and Nutrition Disorders: percentage of subjects with adverse events (8.75 mg/knee, BID, N = 70)
20: Infections and Infestations: number of adverse events (8.75 mg/knee, BID, N = 70)
4.3%: Abdominal Discomfort: percentage of subjects with adverse events (8.75 mg/knee, BID, N = 70) | Hypertriglyceridemia: percentage of subjects with adverse events (8.75 mg/knee, BID, N = 70) | Nausea: percentage of subjects with adverse events (8.75 mg/knee, BID, N = 70) | Application Site Rash: percentage of subjects with adverse events (17.5 mg/knee, BID, N = 70)
3(4.3%): Respiratory, Thoracic and Mediastinal Disorders: subjects with adverse events, number (percentage) (8.75 mg/knee, BID, N = 70)
